# Results taken from patent US20070093520A1, “Method of treatment of diarrhea-predominant irritable bowel syndrome in a subject” (priority 2005, published 2007).
# Tested on: diarrhea-predominant IBS subjects
# Assay: 3007 Study: open-label 52-week safety study, adverse events and withdrawals
smiles,measurement,setting,value
"Cc1nccn1C[C@H]1CCc2c(c3cccc4c3n2CCC4)C1=O [cilansetron, (R)-(−)-4,5,6,8,9,10-hexahydro-10-[(2-methyl-1H-imidazol-1-yl)methyl]-11H-pyrido-[3,2,1-jk]-carbazol-11-one]",TEAE: Sexual Desire Disorders,P/C group,1 (<1%) n (%)
same,TEAE: Sick Sinus Syndrome,P/C group,1 (<1%) n (%)
same,TEAE: Sinus Arrhythmia,P/C group,1 (<1%) n (%)
same,TEAE: Sinus Congestion,P/C group,3 (1%) n (%)
same,TEAE: Skin Disorder NOS,P/C group,1 (<1%) n (%)
same,TEAE: Skin Injuries and Mechanical Dermatoses,P/C group,2 (<1%) n (%)
same,TEAE: Skin Lesion NOS,P/C group,2 (<1%) n (%)
same,TEAE: Skin Neoplasms Benign,P/C group,1 (<1%) n (%)
same,TEAE: Skin Neoplasms Malignant and Unspecified (Excl Melanoma),P/C group,4 (1%) n (%)
same,TEAE: Skin Ulcer,P/C group,1 (<1%) n (%)
same,TEAE: Skin and Subcutaneous Tissue Disorders,P/C group,25 (9%) n (%)
same,TEAE: Skin and Subcutaneous Tissue Ulcerations,P/C group,1 (<1%) n (%)
same,TEAE: Social Circumstances,P/C group,1 (<1%) n (%)
same,TEAE: Soft Tissue Neoplasms Benign NEC,P/C group,0 n (%)
same,TEAE: Strabismus,P/C group,1 (<1%) n (%)
same,TEAE: Stress Incontinence,P/C group,0 n (%)
same,TEAE: Stress Symptoms,P/C group,1 (<1%) n (%)
same,TEAE: Structural and Other Bile Duct Disorders,P/C group,1 (<1%) n (%)
same,TEAE: Sugar Intolerance (Excl Glucose Intolerance),P/C group,1 (<1%) n (%)
same,TEAE: Suicidal Ideation,P/C group,1 (<1%) n (%)
same,TEAE: Suicidal and Self-Injurious Behaviour,P/C group,1 (<1%) n (%)
same,TEAE: Supraventricular Arrhythmias,P/C group,3 (1%) n (%)
same,TEAE: Supraventricular Tachycardia,P/C group,1 (<1%) n (%)
same,TEAE: Surgical and Medical Procedures,P/C group,1 (<1%) n (%)
same,TEAE: Sweating Increased,P/C group,2 (<1%) n (%)
same,TEAE: Swelling Face,P/C group,1 (<1%) n (%)
same,TEAE: Tachycardia NOS,P/C group,0 n (%)
same,TEAE: Tenderness NOS,P/C group,1 (<1%) n (%)
same,TEAE: Thrombocytopenia,P/C group,1 (<1%) n (%)
same,TEAE: Thrombocytopenias,P/C group,1 (<1%) n (%)
same,TEAE: Thrombophlebitis Superficial,P/C group,1 (<1%) n (%)
same,TEAE: Thyroid Disorders NEC,P/C group,0 n (%)
same,TEAE: Thyroid Hypofunction Disorders,P/C group,1 (<1%) n (%)
same,TEAE: Thyroid Neoplasms,P/C group,1 (<1%) n (%)
same,TEAE: Thyroid Nodule,P/C group,1 (<1%) n (%)
same,TEAE: Tinnitus,P/C group,0 n (%)
same,TEAE: Total Fluid Volume Decreased,P/C group,1 (<1%) n (%)
same,TEAE: Tympanic Membrane Disorder NOS,P/C group,1 (<1%) n (%)
same,TEAE: Tympanic Membrane Disorders (Excl Infections),P/C group,1 (<1%) n (%)
same,TEAE: Upper Respiratory Tract Signs and Symptoms,P/C group,4 (1%) n (%)
same,TEAE: Urinary Abnormalities,P/C group,1 (<1%) n (%)
same,TEAE: Urinary Frequency,P/C group,1 (<1%) n (%)
same,TEAE: Urinary Incontinence,P/C group,0 n (%)
same,TEAE: Urinary Retention,P/C group,0 n (%)
same,TEAE: Urinary Tract Lithiasis (Excl Renal),P/C group,0 n (%)
same,TEAE: Urinary Tract Signs and Symptoms NEC,P/C group,1 (<1%) n (%)
same,TEAE: Urine Abnormal NOS,P/C group,0 n (%)
same,TEAE: Urticaria NOS,P/C group,2 (<1%) n (%)
same,TEAE: Urticarias,P/C group,2 (<1%) n (%)
same,TEAE: Uterine Disorders NEC*,P/C group,0 n (%)
same,TEAE: Uterine Fibroids*,P/C group,0 n (%)
same,TEAE: Uterine Neoplasms Benign*,P/C group,0 n (%)
same,TEAE: Uterine Neoplasms*,P/C group,0 n (%)
same,TEAE: Uterine Polyp NOS*,P/C group,0 n (%)
same,TEAE: Vaginal Cyst*,P/C group,0 n (%)
same,TEAE: Vaginal Lesion*,P/C group,0 n (%)
same,TEAE: Varicose Vein Ruptured,P/C group,0 n (%)
same,TEAE: Varicose Veins Non-Site Specific,P/C group,0 n (%)
same,TEAE: Vascular Disorders,P/C group,8 (3%) n (%)
same,TEAE: Vascular Hypertensive Disorders NEC,P/C group,7 (3%) n (%)
same,TEAE: Vascular Hypotensive Disorders,P/C group,1 (<1%) n (%)
same,TEAE: Ventricular Arrhythmias and Cardiac Arrest,P/C group,1 (<1%) n (%)
same,TEAE: Ventricular Extrasystoles,P/C group,0 n (%)
same,TEAE: Vertigo,P/C group,1 (<1%) n (%)
same,TEAE: Visual Acuity Reduced,P/C group,1 (<1%) n (%)
same,TEAE: Vitreous Disorder NOS,P/C group,1 (<1%) n (%)
same,TEAE: Vulvovaginal Cysts and Neoplasms*,P/C group,0 n (%)
same,TEAE: Vulvovaginal Dryness*,P/C group,2 (1%) n (%)
same,TEAE: Vulvovaginal Signs and Symptoms*,P/C group,2 (1%) n (%)
same,TEAE: Wheezing,P/C group,0 n (%)
same,TEAE: Abdominal Discomfort,Placebo/Cilansetron 2 mg,0 n (%)
same,TEAE: Abdominal Distension,Placebo/Cilansetron 2 mg,6 (2%) n (%)
same,TEAE: Abdominal Pain Aggravated,Placebo/Cilansetron 2 mg,0 n (%)
same,TEAE: Abdominal Pain Lower,Placebo/Cilansetron 2 mg,6 (2%) n (%)
same,TEAE: Abdominal Pain NOS,Placebo/Cilansetron 2 mg,21 (8%) n (%)
same,TEAE: Abdominal Pain Upper,Placebo/Cilansetron 2 mg,4 (1%) n (%)
same,TEAE: Abdominal Rebound Tenderness,Placebo/Cilansetron 2 mg,0 n (%)
same,TEAE: Abdominal Tenderness,Placebo/Cilansetron 2 mg,4 (1%) n (%)
same,TEAE: Abnormal Reflexes,Placebo/Cilansetron 2 mg,0 n (%)
same,TEAE: Alanine Aminotransferase Increased,Placebo/Cilansetron 2 mg,6 (2%) n (%)
same,TEAE: Anal and Rectal Disorders NEC,Placebo/Cilansetron 2 mg,1 (<1%) n (%)
same,TEAE: Anal and Rectal Pains,Placebo/Cilansetron 2 mg,4 (1%) n (%)
same,TEAE: Anal and Rectal Signs and Symptoms,Placebo/Cilansetron 2 mg,3 (1%) n (%)
same,TEAE: Animal Bite,Placebo/Cilansetron 2 mg,1 (<1%) n (%)
same,TEAE: Appendicitis,Placebo/Cilansetron 2 mg,0 n (%)
same,TEAE: Arthralgia,Placebo/Cilansetron 2 mg,3 (1%) n (%)
same,TEAE: Arthritis NOS,Placebo/Cilansetron 2 mg,0 n (%)
same,TEAE: Arthritis NOS Aggravated,Placebo/Cilansetron 2 mg,0 n (%)
same,TEAE: Arthropathies NEC,Placebo/Cilansetron 2 mg,1 (<1%) n (%)
same,TEAE: Arthropod Bite,Placebo/Cilansetron 2 mg,1 (<1%) n (%)
same,TEAE: Arthropod Sting,Placebo/Cilansetron 2 mg,1 (<1%) n (%)
same,TEAE: Aspartate Aminotransferase Increased,Placebo/Cilansetron 2 mg,3 (1%) n (%)
same,TEAE: Back Injury NOS,Placebo/Cilansetron 2 mg,0 n (%)
same,TEAE: Back Pain,Placebo/Cilansetron 2 mg,6 (2%) n (%)
same,TEAE: Back Pain Aggravated,Placebo/Cilansetron 2 mg,1 (<1%) n (%)
same,TEAE: Bacteria Identification and Serology (Excl Mycobacteria),Placebo/Cilansetron 2 mg,0 n (%)
same,TEAE: Bilirubin Urine,Placebo/Cilansetron 2 mg,0 n (%)
same,TEAE: Bladder Infection NOS,Placebo/Cilansetron 2 mg,1 (<1%) n (%)
same,TEAE: Blood Alkaline Phosphatase NOS Increased,Placebo/Cilansetron 2 mg,1 (<1%) n (%)
same,TEAE: Blood Bilirubin Increased,Placebo/Cilansetron 2 mg,2 (<1%) n (%)
same,TEAE: Blood Cholesterol Increased,Placebo/Cilansetron 2 mg,8 (3%) n (%)
same,TEAE: Blood Creatine Phosphokinase Increased,Placebo/Cilansetron 2 mg,8 (3%) n (%)
same,TEAE: Blood Creatine Phosphokinase Mb Increased,Placebo/Cilansetron 2 mg,0 n (%)
same,TEAE: Blood Creatinine Increased,Placebo/Cilansetron 2 mg,3 (1%) n (%)
same,TEAE: Blood Glucose Increased,Placebo/Cilansetron 2 mg,0 n (%)
same,TEAE: Blood Potassium Increased,Placebo/Cilansetron 2 mg,0 n (%)
same,TEAE: Blood Pressure Increased,Placebo/Cilansetron 2 mg,2 (<1%) n (%)
same,TEAE: Blood Sodium Increased,Placebo/Cilansetron 2 mg,0 n (%)
same,TEAE: Blood Triglycerides Increased,Placebo/Cilansetron 2 mg,4 (1%) n (%)
same,TEAE: Blood Uric Acid Increased,Placebo/Cilansetron 2 mg,0 n (%)
same,TEAE: Blood Urine Present,Placebo/Cilansetron 2 mg,4 (1%) n (%)
same,TEAE: Blood in Stool,Placebo/Cilansetron 2 mg,4 (1%) n (%)
same,TEAE: Bone Density Decreased,Placebo/Cilansetron 2 mg,1 (<1%) n (%)
same,TEAE: Bone Disorder NOS,Placebo/Cilansetron 2 mg,0 n (%)
same,TEAE: Bone Disorders NEC,Placebo/Cilansetron 2 mg,2 (<1%) n (%)
same,TEAE: Bone Injury,Placebo/Cilansetron 2 mg,0 n (%)
same,TEAE: Bone Spur,Placebo/Cilansetron 2 mg,1 (<1%) n (%)
same,TEAE: Bronchitis Acute NOS,Placebo/Cilansetron 2 mg,1 (<1%) n (%)
same,TEAE: Bronchitis NOS,Placebo/Cilansetron 2 mg,5 (2%) n (%)
same,TEAE: Bronchopneumonia NOS,Placebo/Cilansetron 2 mg,1 (<1%) n (%)
same,TEAE: Bunion,Placebo/Cilansetron 2 mg,0 n (%)
same,TEAE: Bursal Disorders,Placebo/Cilansetron 2 mg,3 (1%) n (%)
same,TEAE: Bursitis,Placebo/Cilansetron 2 mg,2 (<1%) n (%)
same,TEAE: Candida Infections,Placebo/Cilansetron 2 mg,2 (<1%) n (%)
same,TEAE: Candidal Infection NOS,Placebo/Cilansetron 2 mg,1 (<1%) n (%)
same,TEAE: Carbohydrate Tolerance Analyses (Incl Diabetes),Placebo/Cilansetron 2 mg,0 n (%)
same,TEAE: Cardiac Auscultatory Investigations,Placebo/Cilansetron 2 mg,0 n (%)
same,TEAE: Cardiac Murmur NOS,Placebo/Cilansetron 2 mg,0 n (%)
same,TEAE: Carotid Bruit,Placebo/Cilansetron 2 mg,1 (<1%) n (%)
same,TEAE: Carpal Tunnel Syndrome,Placebo/Cilansetron 2 mg,1 (<1%) n (%)
same,TEAE: Cartilage Disorder NOS,Placebo/Cilansetron 2 mg,0 n (%)
same,TEAE: Cartilage Disorders,Placebo/Cilansetron 2 mg,0 n (%)
same,TEAE: Cellulitis,Placebo/Cilansetron 2 mg,1 (<1%) n (%)
same,TEAE: Cervical Spasm,Placebo/Cilansetron 2 mg,0 n (%)
same,TEAE: Change in Bowel Habit NOS,Placebo/Cilansetron 2 mg,1 (<1%) n (%)
same,TEAE: Chapped Lips,Placebo/Cilansetron 2 mg,1 (<1%) n (%)
same,TEAE: Chest Wall Pain,Placebo/Cilansetron 2 mg,2 (<1%) n (%)
same,TEAE: Cholesterol Analyses,Placebo/Cilansetron 2 mg,8 (3%) n (%)
same,TEAE: Colitis (Excl Infective),Placebo/Cilansetron 2 mg,1 (<1%) n (%)
same,TEAE: Colitis Ischaemic,Placebo/Cilansetron 2 mg,1 (<1%) n (%)
same,TEAE: Colonic Polyp,Placebo/Cilansetron 2 mg,0 n (%)
same,TEAE: Connective Tissue Disorders (Excl Le),Placebo/Cilansetron 2 mg,2 (<1%) n (%)
same,TEAE: Constipation,Placebo/Cilansetron 2 mg,62 (22%) n (%)
same,TEAE: Cystitis NOS,Placebo/Cilansetron 2 mg,0 n (%)
same,TEAE: Dental Disorders NEC,Placebo/Cilansetron 2 mg,0 n (%)
same,TEAE: Dental Infections - Pathogen Class Unspecified,Placebo/Cilansetron 2 mg,2 (<1%) n (%)
same,TEAE: Dental Pain and Sensation Disorders,Placebo/Cilansetron 2 mg,1 (<1%) n (%)
same,TEAE: Diaphragmatic Hernias,Placebo/Cilansetron 2 mg,0 n (%)
same,TEAE: Diarrhoea (Excl Infective),Placebo/Cilansetron 2 mg,15 (5%) n (%)
same,TEAE: Diarrhoea Aggravated,Placebo/Cilansetron 2 mg,2 (<1%) n (%)
same,TEAE: Diarrhoea Haemorrhagic,Placebo/Cilansetron 2 mg,2 (<1%) n (%)
same,TEAE: Diarrhoea NOS,Placebo/Cilansetron 2 mg,9 (3%) n (%)
same,TEAE: Disturbances in Consciousness NEC,Placebo/Cilansetron 2 mg,1 (<1%) n (%)
same,TEAE: Diverticulitis NOS,Placebo/Cilansetron 2 mg,1 (<1%) n (%)
same,TEAE: Diverticulum Inflammations,Placebo/Cilansetron 2 mg,1 (<1%) n (%)
same,TEAE: Dizziness,Placebo/Cilansetron 2 mg,2 (<1%) n (%)
same,TEAE: Dry Mouth,Placebo/Cilansetron 2 mg,1 (<1%) n (%)
same,TEAE: Dysarthria,Placebo/Cilansetron 2 mg,1 (<1%) n (%)
same,TEAE: Dyskinesias and Movement Disorders NEC,Placebo/Cilansetron 2 mg,1 (<1%) n (%)
same,TEAE: Dyspepsia,Placebo/Cilansetron 2 mg,7 (3%) n (%)
same,TEAE: Dyspepsia Aggravated,Placebo/Cilansetron 2 mg,0 n (%)
same,TEAE: Dyspeptic Signs and Symptoms,Placebo/Cilansetron 2 mg,7 (3%) n (%)
same,TEAE: ECG Investigations,Placebo/Cilansetron 2 mg,1 (<1%) n (%)
same,TEAE: Ear Infection NOS,Placebo/Cilansetron 2 mg,2 (<1%) n (%)
same,TEAE: Ear Infections,Placebo/Cilansetron 2 mg,3 (1%) n (%)
same,TEAE: Electrocardiogram Qrs Complex Abnormal,Placebo/Cilansetron 2 mg,0 n (%)
same,TEAE: Electrocardiogram T Wave Inversion,Placebo/Cilansetron 2 mg,1 (<1%) n (%)
same,TEAE: Enteritis,Placebo/Cilansetron 2 mg,1 (<1%) n (%)
same,TEAE: Epigastric Discomfort,Placebo/Cilansetron 2 mg,1 (<1%) n (%)
